Measurements published in ChEMBL document CHEMBL2029295, “Discovery and optimization of a potent and selective triazolopyridinone series of c-Met inhibitors” (Bioorg Med Chem Lett, 2012).
Converted amounts (≈) assume the structure as drawn.

Key:
[1] = Solubility of the compound in 0.1N HCl; assay type: physicochemical
[2] = Solubility of the compound in simulated intestinal fluid; assay type: physicochemical
[3] = Solubility of the compound in phosphate buffered saline; assay type: physicochemical
[4] = Intrinsic clearance in mouse liver microsomes; assay type: ADME, Microsome; conditions: read-out: CLH
[5] = AUC (0 to infinity) in Sprague-Dawley rat at 2 mg/kg, po; assay type: ADME, organism-based; design: time infinity, dose 2 mg/kg, route oral; conditions: plasma
[6] = Intrinsic clearance in rat liver microsomes; assay type: ADME, Microsome; conditions: read-out: CLH
[7] = Plasma protein binding in human by equilibrium dialysis; assay type: ADME, cell-free; conditions: read-out: PPB (converted)
[8] = Intrinsic clearance in human liver microsomes; assay type: ADME, Microsome; conditions: read-out: CLH
[9] = Half life in Sprague-Dawley rat at 0.25 mg/kg, iv; assay type: ADME, organism-based; design: dose 0.25 mg/kg, route intravenous; conditions: in vivo
[10] = Plasma protein binding in rat by equilibrium dialysis; assay type: ADME, cell-free; conditions: read-out: PPB (converted)
[11] = Volume of distribution at steady state in Sprague-Dawley rat at 0.25 mg/kg, iv; assay type: ADME, organism-based; design: dose 0.25 mg/kg, route intravenous; conditions: in vivo, read-out: Vdss
[12] = Plasma protein binding in mouse by equilibrium dialysis; assay type: ADME, cell-free; conditions: read-out: PPB (converted)
[13] = Oral bioavailability in Sprague-Dawley rat at 2 mg/kg; assay type: ADME, organism-based; conditions: in vivo
[14] = Clearance in Sprague-Dawley rat at 0.25 mg/kg, iv; assay type: ADME, organism-based; design: dose 0.25 mg/kg, route intravenous; conditions: in vivo
[15] = biological target: Mast/stem cell growth factor receptor Kit (Homo sapiens) (UniProt P10721); assay: Inhibition of KIT assessed as remaining activity at 1 uM relative to control
[16] = biological target: Vascular endothelial growth factor receptor 2 (Homo sapiens) (UniProt P35968); assay: Inhibition of VEGFR2 assessed as remaining activity at 1 uM relative to control
[17] = biological target: Platelet-derived growth factor receptor beta (Homo sapiens) (UniProt P09619); assay: Inhibition of PDGFRB assessed as remaining activity at 1 uM relative to control
[18] = tested on: Plasma; assay: Plasma concentration in BALB/c mouse at 10 mg/kg, po; assay type: ADME, organism-based; design: dose 10 mg/kg, route oral; conditions: in vivo
[19] = tested on: Mus musculus; assay: Inhibition of HGF-induced phosphorylation of c-Met in BALB/c mice mouse liver at 10 mg/kg, po administered 1 to 24 hrs before HGF-induction measured after 5 mins; assay type: functional

Platelet-derived growth factor receptor beta (Homo sapiens), sequence (P09619 whole entry): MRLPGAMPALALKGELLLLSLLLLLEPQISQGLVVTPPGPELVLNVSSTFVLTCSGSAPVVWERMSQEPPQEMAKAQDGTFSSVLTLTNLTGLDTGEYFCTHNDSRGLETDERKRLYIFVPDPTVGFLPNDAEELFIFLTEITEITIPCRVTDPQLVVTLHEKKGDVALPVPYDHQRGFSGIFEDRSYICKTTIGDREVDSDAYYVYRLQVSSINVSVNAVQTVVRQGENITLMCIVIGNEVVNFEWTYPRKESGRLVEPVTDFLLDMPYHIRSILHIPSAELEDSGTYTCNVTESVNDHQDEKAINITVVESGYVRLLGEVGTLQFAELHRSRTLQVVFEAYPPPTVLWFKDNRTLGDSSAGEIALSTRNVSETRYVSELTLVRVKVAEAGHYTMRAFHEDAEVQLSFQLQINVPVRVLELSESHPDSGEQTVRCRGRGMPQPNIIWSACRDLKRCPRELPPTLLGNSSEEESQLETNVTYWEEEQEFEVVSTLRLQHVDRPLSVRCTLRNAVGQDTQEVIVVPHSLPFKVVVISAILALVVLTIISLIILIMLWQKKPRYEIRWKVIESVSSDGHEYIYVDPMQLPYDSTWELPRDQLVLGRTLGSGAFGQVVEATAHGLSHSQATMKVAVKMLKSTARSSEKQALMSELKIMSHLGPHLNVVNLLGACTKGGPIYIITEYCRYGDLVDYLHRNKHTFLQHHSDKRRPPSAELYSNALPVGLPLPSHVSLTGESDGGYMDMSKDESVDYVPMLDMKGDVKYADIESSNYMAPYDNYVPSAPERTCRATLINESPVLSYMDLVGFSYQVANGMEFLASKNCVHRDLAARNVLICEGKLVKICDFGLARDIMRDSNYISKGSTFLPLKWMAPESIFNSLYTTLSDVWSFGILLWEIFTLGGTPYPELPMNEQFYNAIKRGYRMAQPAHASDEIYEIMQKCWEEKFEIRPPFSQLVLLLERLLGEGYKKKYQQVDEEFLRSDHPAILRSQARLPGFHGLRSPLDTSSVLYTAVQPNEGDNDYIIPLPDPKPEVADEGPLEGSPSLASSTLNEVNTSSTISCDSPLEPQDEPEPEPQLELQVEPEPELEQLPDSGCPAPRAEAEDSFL
Vascular endothelial growth factor receptor 2 (Homo sapiens), sequence (P35968 whole entry): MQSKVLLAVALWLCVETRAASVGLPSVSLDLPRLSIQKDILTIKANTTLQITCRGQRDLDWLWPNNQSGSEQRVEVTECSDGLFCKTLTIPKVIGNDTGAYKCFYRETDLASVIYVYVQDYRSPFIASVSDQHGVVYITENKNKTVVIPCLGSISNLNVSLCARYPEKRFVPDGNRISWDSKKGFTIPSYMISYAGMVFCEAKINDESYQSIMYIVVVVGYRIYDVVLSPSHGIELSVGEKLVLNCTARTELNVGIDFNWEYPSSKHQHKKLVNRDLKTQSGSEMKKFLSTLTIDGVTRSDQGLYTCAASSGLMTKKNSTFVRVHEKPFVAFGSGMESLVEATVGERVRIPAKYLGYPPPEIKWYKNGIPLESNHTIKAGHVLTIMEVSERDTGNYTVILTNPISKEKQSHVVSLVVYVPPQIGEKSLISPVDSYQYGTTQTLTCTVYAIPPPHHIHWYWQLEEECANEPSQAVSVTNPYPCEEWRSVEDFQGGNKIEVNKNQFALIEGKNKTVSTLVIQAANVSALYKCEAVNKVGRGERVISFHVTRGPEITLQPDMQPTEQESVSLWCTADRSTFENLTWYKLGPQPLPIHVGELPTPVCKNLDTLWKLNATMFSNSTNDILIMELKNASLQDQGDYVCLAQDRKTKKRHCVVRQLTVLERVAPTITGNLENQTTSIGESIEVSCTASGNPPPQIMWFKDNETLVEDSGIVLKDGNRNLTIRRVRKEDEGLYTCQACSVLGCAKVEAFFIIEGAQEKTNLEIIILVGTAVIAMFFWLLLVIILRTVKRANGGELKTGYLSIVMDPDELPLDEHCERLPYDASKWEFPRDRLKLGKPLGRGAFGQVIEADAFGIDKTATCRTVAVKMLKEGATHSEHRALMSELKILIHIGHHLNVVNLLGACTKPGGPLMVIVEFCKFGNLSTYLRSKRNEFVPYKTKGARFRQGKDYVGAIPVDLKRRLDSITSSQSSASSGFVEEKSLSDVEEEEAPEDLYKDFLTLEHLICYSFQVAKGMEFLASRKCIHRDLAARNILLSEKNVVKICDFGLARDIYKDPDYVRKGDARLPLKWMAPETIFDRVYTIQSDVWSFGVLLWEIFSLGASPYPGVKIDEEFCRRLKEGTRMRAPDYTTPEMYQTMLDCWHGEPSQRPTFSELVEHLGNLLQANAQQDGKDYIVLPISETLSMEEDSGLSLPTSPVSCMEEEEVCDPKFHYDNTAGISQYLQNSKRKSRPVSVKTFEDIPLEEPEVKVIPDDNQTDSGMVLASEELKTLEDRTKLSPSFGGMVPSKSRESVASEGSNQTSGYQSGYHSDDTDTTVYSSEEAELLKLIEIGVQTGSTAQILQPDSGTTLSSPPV
Mast/stem cell growth factor receptor Kit (Homo sapiens), sequence (P10721 whole entry): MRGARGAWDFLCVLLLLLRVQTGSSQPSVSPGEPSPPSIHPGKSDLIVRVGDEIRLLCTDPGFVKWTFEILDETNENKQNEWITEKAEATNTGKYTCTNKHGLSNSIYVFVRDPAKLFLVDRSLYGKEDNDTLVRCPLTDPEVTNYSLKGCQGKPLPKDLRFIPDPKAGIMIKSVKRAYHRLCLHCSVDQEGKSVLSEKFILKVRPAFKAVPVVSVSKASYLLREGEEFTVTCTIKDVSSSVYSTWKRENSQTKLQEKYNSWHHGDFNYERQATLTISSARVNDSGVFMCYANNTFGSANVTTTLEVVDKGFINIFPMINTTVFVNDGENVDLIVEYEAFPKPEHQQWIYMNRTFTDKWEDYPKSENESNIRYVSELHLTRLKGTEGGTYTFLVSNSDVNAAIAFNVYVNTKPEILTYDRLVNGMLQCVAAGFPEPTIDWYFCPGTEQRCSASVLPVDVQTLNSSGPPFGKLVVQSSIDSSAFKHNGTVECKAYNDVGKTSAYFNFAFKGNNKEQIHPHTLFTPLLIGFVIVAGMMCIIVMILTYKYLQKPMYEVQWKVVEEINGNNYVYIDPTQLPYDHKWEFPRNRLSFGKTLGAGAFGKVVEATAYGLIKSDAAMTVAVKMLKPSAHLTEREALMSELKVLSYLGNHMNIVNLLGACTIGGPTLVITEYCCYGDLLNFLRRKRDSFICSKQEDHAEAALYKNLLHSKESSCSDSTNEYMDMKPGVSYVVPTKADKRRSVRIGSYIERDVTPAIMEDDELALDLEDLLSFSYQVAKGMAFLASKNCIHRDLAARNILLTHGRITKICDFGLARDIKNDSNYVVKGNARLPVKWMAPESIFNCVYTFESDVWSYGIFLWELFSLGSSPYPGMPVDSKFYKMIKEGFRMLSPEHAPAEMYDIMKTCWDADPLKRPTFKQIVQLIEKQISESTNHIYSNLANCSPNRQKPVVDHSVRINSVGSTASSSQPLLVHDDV

## COCCOc1cnc2ccc(Cn3nnc4ccn(-c5cc(C)ns5)c(=O)c43)cc2c1
[1]
  solubility: 13.7 µg/mL (≈ 30.5 µM)
[2]
  solubility: 9.8 µg/mL (≈ 21.9 µM)
[3]
  solubility: 2.5 µg/mL (≈ 5.57 µM)

## Cc1cc(-n2ccc3nnn(Cc4ccc5ncccc5c4)c3c2=O)sn1
[1]
  solubility: 80.1 µg/mL (≈ 214 µM)
[2]
  solubility: 4.8 µg/mL (≈ 12.8 µM)
[3]
  solubility: < 1 µg/mL

## COCCOc1cnc2ccc([C@H](C)n3nnc4ccn(-c5ccc(F)c(F)c5)c(=O)c43)cc2c1
[1]
  solubility: 128 µg/mL (≈ 267 µM)
[2]
  solubility: 37.7 µg/mL (≈ 79 µM)
[4]
  microsomal CLint: 98 µL/min/mg
[5]
  AUC(0-inf): 638 ng·h/mL
[6]
  microsomal CLint: 105 µL/min/mg
[7]
  fraction unbound: 0.045
[8]
  microsomal CLint: 120 µL/min/mg
[9]
  half-life: 1.81 h
[10]
  fraction unbound: 0.02
[11]
  Vd: 2.38 L/kg
[12]
  fraction unbound: 0.044
[13]
  bioavailability: 36%
[14]
  clearance: 18.8 mL/min/kg
[3]
  solubility: 11.1 µg/mL (≈ 23.2 µM)

## Cc1cc(-n2ccc3nnn([C@@H](C)c4ccc5ncccc5c4)c3c2=O)sn1
[1]
  solubility: ≥ 200 µg/mL
[2]
  solubility: 22.4 µg/mL (≈ 57.7 µM)
[3]
  solubility: 4.5 µg/mL (≈ 11.6 µM)

## Cc1cc(N2CCc3nnn(Cc4ccc5ncccc5c4)c3C2=O)sn1
[1]
  solubility: 43.2 µg/mL (≈ 115 µM)
[2]
  solubility: < 1 µg/mL
[3]
  solubility: 2.2 µg/mL (≈ 5.84 µM)

## COCCOc1cnc2ccc([C@H](C)n3nnc4ccn(-c5cc(C)ns5)c(=O)c43)cc2c1
[1]
  solubility: 37 µg/mL (≈ 80 µM)
[2]
  solubility: 39.7 µg/mL (≈ 85.8 µM)
[4]
  microsomal CLint: 68 µL/min/mg
[5]
  AUC(0-inf): 1560 ng·h/mL
[15]
  Activity: 26%
[16]
  Activity: 34%
[6]
  microsomal CLint: 89 µL/min/mg
[7]
  fraction unbound: 0.012
[8]
  microsomal CLint: 84 µL/min/mg
[17]
  Activity: 10%
[9]
  half-life: 3.4 h
[10]
  fraction unbound: 0.018
[18]
  concentration: < 200 nM
[11]
  Vd: 2.53 L/kg
[12]
  fraction unbound: 0.027
[13]
  bioavailability: 43%
[19]
  inhibition in vivo at 10 mg/kg: 89%
[14]
  clearance: 9.32 mL/min/kg
[3]
  solubility: 8.7 µg/mL (≈ 18.8 µM)

## O=C1c2c(nnn2Cc2ccc3ncccc3c2)CCN1c1ccccc1
[1]
  solubility: ≥ 200 µg/mL
[2]
  solubility: 60.4 µg/mL (≈ 170 µM)
[3]
  solubility: ≥ 200 µg/mL
